From paper PMC10484922, “Discovery of a selective and biologically active low-molecular weight antagonist of human interleukin-1β” (Nature Communications, 2023)
Values joined by “and” are separate entries in the source; they are usually repeats but may differ in a detail not shown here. Equal values may be shown once. Read-outs that look alike come from different tables or passages of the source.

What was measured:
[1] = molecular target: T1, IL-1α (Homo sapiens, UniProt P01583); assay: TR-FRET IL-1α/hIL-1R1 receptor displacement assay; type: biochemical; conditions: read-out: TR-FRET IL-1α IC50
T1 sequence (P01583 113-271): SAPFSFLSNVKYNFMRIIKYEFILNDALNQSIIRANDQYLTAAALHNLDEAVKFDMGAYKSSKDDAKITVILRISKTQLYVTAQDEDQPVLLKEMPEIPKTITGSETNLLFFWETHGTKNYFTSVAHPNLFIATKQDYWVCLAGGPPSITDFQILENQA
Procedure: After 1 h incubation at room temperature, hIL-1R1 (1–332; Alexa 647 labeled; 50 nM final concentration) and anti-His-Europium W1024 (Perkin Elmer; Cat.No. AD0401, 1 nM final concentration) were added to a final volume of 10 μl per well. After 1 h of incubation at room temperature, time-resolved fluorescence was measured at λexc = 320 ± 20 nm, λem = 620 ± 25 nm/665 ± 25 nm using a Pherastar FSX plate reader. All experiments were run in triplicates. The data provided a typical saturation-binding curve, and the IC50 values were calculated by fitting the results to the Hill equation using Prism 7.0 and the in-house software Helios.

[2] = molecular target: T2, IL-1β (Homo sapiens, UniProt P01584); assay: protein-observed 1H-13C-HMQC NMR binding (I/Io of Leu60 Cδ1H3); set-up: Mature hIL-1β was expressed in Escherichia coli; made in house; host or cells: Escherichia coli BL21 (DE3), pET17b; conditions: for NMR I/Io values, individual experiments (Exp1-2) / NMR I/Io values, Mean: source data; for I/Io (ratio of peak intensities of Leu60 Cδ1H3 in 1H-13C-HMQC spectra in presence and absence of ligand): hIL-1β 50 µM, 500 µM compound
Procedure: ^1H–^13C- and ^1H–^15N-HMQC spectra were recorded on Bruker AVANCE 600 MHz and 800 MHz spectrometers equipped with TXI-cryocooled probeheads. In ligand binding experiments, protein concentrations were typically 50 μM in PBS, pH 7.4. Backbone assignments of hIL-1β in the ligand-bound state and unliganded state were obtained by a combination of a 3D triple resonance experiment HNCACB and a ^15N-edited NOESY spectrum, which were processed using TOPSPIN 3.2 and analyzed using CcpNmr AnalysisAssign 3.1.0[46]. ^15N-CEST experiments were run at weak B1 radiofrequency fields of 25 and 12.5 Hz on a Bruker AVANCE 800 MHz spectrometer with 113 increments and a total sweep width of 28 ppm in the pseudo-3D dimension. Peak intensities were extracted by fitting pseudo-Voigt lineshape models using peakipy (https://github.com/j-brady/peakipy). Fitted peak intensities were subsequently used to generate CEST profiles, and exchange parameters were fitted using ChemEx (https://github.com/gbouvignies/ChemEx).
Supplementary Figure 2. 13C-NMR and 19F-NMR reporter assays to monitor early
13C-HMQC spectra of hIL-1b (50 µM) were acquired in the presence (red) and absence (blue) of 500
µM compound and rows were extracted at the w1-frequency of the peak corresponding to Leu60 […]

[3] = molecular target: T2, IL-1β; assay: TR-FRET IL-1β/hIL-1R1 receptor displacement assay; type: biochemical; conditions: read-out: TR-FRET IL-1β IC50
Procedure: After 1 h incubation at room temperature, hIL-1R1 (1–332; Alexa 647 labeled; 50 nM final concentration) and anti-His-Europium W1024 (Perkin Elmer; Cat.No. AD0401, 1 nM final concentration) were added to a final volume of 10 μl per well. […] All experiments were run in triplicates.

[4] = molecular target: T2, IL-1β; assay: 19F-reporter displacement assay with (S)-1 as probe; type: binding; set-up: Mature hIL-1β was expressed in Escherichia coli; made in house; host or cells: Escherichia coli BL21 (DE3), pET17b
Procedure: Protein and reporter concentrations were 10 and 40 μM, respectively. To account for changes in sample homogeneity, samples contained 1-(2,2,2-trifluoroacetyl)piperidine-4-carboxylic acid as an internal reference for scaling signal intensities. Three concentrations of the competitor were typically measured, and the related displacement of the probe was converted into Ki-values according to Dalvit and Vulpetti[17]. […] This process was automated with FRPipe, an in-house developed Python script (https://github.com/Novartis/FRPipe) that allows for streamlined analysis of such experiments. […] For visual inspection, an overview containing relevant ^19F peaks, fitting curves, and proton spectra was plotted.
Supplementary Figure 2. 13C-NMR and 19F-NMR reporter assays to monitor early structure activity relationships of analogues of 1. a, b Early structure activity relationships monitored by protein-observed and c-f 19F-NMR reporter assays, exemplified for compound 8. a 1H-13C-HMQC spectra of hIL-1b (50 µM) were acquired in the presence (red) and absence (blue) of 500 µM compound and rows were extracted at the w1-frequency of the peak corresponding to Leu60 Cd1H3. b The degree of protein binding was estimated from the ratio I/I0, where I and I0 correspond to the signal in the presence and absence of compound, respectively. c For the assessment of the KI-values, the signal intensity of a reporter molecule (S)-1 was monitored in 19F-transverse relaxation experiments run in the absence and presence of increasing amounts of compound. d All intensities were scaled to the intensity of an internal standard (all signals in panel c and d are shifted on the X-axis for clarity). e KI-values were retrieved from theoretical binding curves calculated for each compound concentration8. f One-dimensional 1H-NMR spectra were recorded for each assay mixture to assess the structural integrity and solubility of the compound in the sample.
(1 picture or pasted object on this page, not shown here)

[5] = molecular target: T2, IL-1β; assay: SPR binding of compounds to immobilized hIL-1β; set-up: Mature hIL-1β was expressed in Escherichia coli; made in house; host or cells: Escherichia coli BL21 (DE3), pET17b
Procedure: All SPR experiments were performed with an SPR-32 instrument (Bruker Daltonics SPR, Hamburg, Germany). SPR chips were from XanTec bioanalytics GmbH (Düsseldorf, Germany).
C-terminally avi-tagged hIL-1β protein was immobilized onto a SAHC200M chip with a neutravidin-coated surface. Immobilization was performed with a protein injection of 0.02 mg/ml IL-1β diluted in PBS pH 7.5 (Gibco 70011-036, 10×), 0.05% Tween-20 for 5 min at 10 μl/min. The running buffer for binding studies of compounds was PBS pH 7.4, 0.05% Tween-20, and 2% DMSO. For the correction of small DMSO variations between samples, injections of 6 solvent samples ranging from 1% to 3% DMSO were run. Compound measurements were performed in MICK mode (multiple injection cycles kinetic) with a dose–response of 10 concentrations. Dissociation constants for compounds (KD) were obtained by determining steady-state fit that followed the 1:1 Langmuir model.
Data analysis was performed with the Sierra Analyzer 3.4.0 software from Bruker. Signal intensities were corrected for nonspecific binding to the surface by subtracting intensities from the reference surface from those of the hIL-1β surfaces (first reference subtraction) and by subtracting the buffer injection (second reference subtraction). KD values were carried out by determining a reporting point close to the end of the injection, used for steady-state fit, in addition to a kinetic fit delivering kon- and koff-values; both fitting models followed the 1:1 Langmuir equation.
Supplementary Figure 3. De termination of binding af fi nit ie s for se l ec ted ana l ogues of 1 by SPR. a - d Gr ap hs of exemplary experimen ts are given , where the sat urat ion of hI L-1b immobil ized on a chip was monitored at various concentrations of compound 3, 12, 10, and 11, respectively. Th e saturati on reached at equ ilibri um (insert) was plo tt ed versus the admini stered concentration and the equ ilibri um bin ding constant was derived from a non-li near lea st square fitting routine. e equ ilibri um and f kinetic bin ding of (S)-2 to IL-1b (kon = 1. 15 x 105 M-1 s-1 and koff = 0. 12 s-1).

[6] = 19F-reporter Ki, protein 10 μM, reporter (S)-1 40 μM
[7] = 19F-reporter, individual experiments (Exp1-58), source data
[8] = source data, read-out: SPR Kd, Mean
[9] = source data, read-out: SPR Kd, individual experiments (Exp1-5)
[10] = steady-state fit, 1:1 Langmuir, read-out: SPR KD

T2 sequence (P01584 117-269): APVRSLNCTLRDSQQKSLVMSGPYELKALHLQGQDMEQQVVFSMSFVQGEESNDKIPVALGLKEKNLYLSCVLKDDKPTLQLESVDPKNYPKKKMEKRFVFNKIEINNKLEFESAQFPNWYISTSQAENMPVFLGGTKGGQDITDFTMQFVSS

O=C1Nc2cc(C(F)(F)F)ccc2C1(O)c1cc(Cl)ccc1O (stereo not shown) [Compound 1]
IC50 [1]: > 200 µM
binding to hIL-1β by protein-observed NMR [2]: validated as a binder by 2D NMR
NMR I/Io values, individual experiments (Exp1-2) [2]: 0.39 and 0.31

Cc1ccc2c(c1)NC(=O)C2(O)c1cc(C(C)C)ccc1O (stereo not shown) [Compound 3]
IC50 [3]: > 400 µM
I/Io (ratio of peak intensities of Leu60 Cδ1H3 in 1H-13C-HMQC spectra in presence and absence of ligand) [2]: 0.19 ± 0.03 (N = 2)
NMR I/Io values, Mean [2]: 0.19
NMR I/Io values, individual experiments (Exp1-2) [2]: 0.17 and 0.21
Ki [4, 6]: 151 ± 78 µM
Ki [4, 7]: 206 µM and 96 µM
Kd [5, 8]: 173 µM
Kd [5, 9]: 174 µM and 171 µM
Kd [5, 10]: 172 ± 2 µM

Cc1ccc2c(c1)N(C)C(=O)C2(O)c1cc(C(C)C)ccc1O (stereo not shown) [Compound 4]
IC50 [3]: > 500 µM
binding to hIL-1β by protein-observed NMR [2]: lack of binding
I/Io (ratio of peak intensities of Leu60 Cδ1H3 in 1H-13C-HMQC spectra in presence and absence of ligand) [2]: 0.98 ± 0.06 (N = 2)
NMR I/Io values, Mean [2]: 0.98
NMR I/Io values, individual experiments (Exp1-2) [2]: 0.94 and 1.02
Ki [4, 6]: > 1000 µM

COc1ccc(Cl)cc1C1(O)C(=O)Nc2cc(C(F)(F)F)ccc21 (stereo not shown) [Compound 5]
IC50 [3]: > 530 µM
binding to hIL-1β by protein-observed NMR [2]: lack of binding
I/Io (ratio of peak intensities of Leu60 Cδ1H3 in 1H-13C-HMQC spectra in presence and absence of ligand) [2]: 0.99 ± 0.06 (N = 2)
NMR I/Io values, Mean [2]: 0.99
NMR I/Io values, individual experiments (Exp1-2) [2]: 0.95 and 1.03
Ki [4, 6]: > 1000 µM

O=C1Nc2ccccc2C1(O)c1cc(Cl)ccc1O (stereo not shown) [Compound 6]
IC50 [3]: > 500 µM
binding to hIL-1β by protein-observed NMR [2]: decreases protein binding
I/Io (ratio of peak intensities of Leu60 Cδ1H3 in 1H-13C-HMQC spectra in presence and absence of ligand) [2]: 0.59 ± 0.03 (N = 2)
NMR I/Io values, Mean [2]: 0.59
NMR I/Io values, individual experiments (Exp1-2) [2]: 0.57 and 0.61
Ki [4, 6]: > 1000 µM

O=C1Nc2cc(C(F)(F)F)ccc2C1(O)c1ccccc1O (stereo not shown) [Compound 7]
IC50 [3]: > 500 µM
binding to hIL-1β by protein-observed NMR [2]: decreases protein binding
I/Io (ratio of peak intensities of Leu60 Cδ1H3 in 1H-13C-HMQC spectra in presence and absence of ligand) [2]: 0.45 ± 0.05 (N = 2)
NMR I/Io values, individual experiments (Exp1-2) [2]: 0.41 and 0.48
Ki [4, 6]: > 1000 µM

Cc1ccc2c(c1)NC(=O)C2(O)c1cc(Cl)ccc1O (stereo not shown) [Compound 8]
IC50 [3]: > 200 µM
IC50 [1]: > 200 µM
I/Io (ratio of peak intensities of Leu60 Cδ1H3 in 1H-13C-HMQC spectra in presence and absence of ligand) [2]: 0.18 ± 0.004 (N = 2)
NMR I/Io values, Mean [2]: 0.18
NMR I/Io values, individual experiments (Exp1-2) [2]: 0.18
Ki [4, 6]: 312 ± 124 µM
Ki [4, 7]: 110 µM and 195 µM and 206 µM and 210 µM and 215 µM and 223 µM and 233 µM and 254 µM (2×) and 260 µM (2×) and 120 µM and 261 µM and 262 µM and 268 µM and 278 µM and 281 µM and 282 µM and 283 µM and 287 µM and 292 µM and 293 µM and 133 µM and 295 µM and 309 µM and 317 µM and 325 µM and 331 µM (3×) and 337 µM and 338 µM and 340 µM and 162 µM and 345 µM and 362 µM and 382 µM and 387 µM and 393 µM and 395 µM and 399 µM and 427 µM and 439 µM (2×) and 164 µM and 454 µM and 456 µM and 471 µM and 475 µM and 580 µM and 600 µM and 622 µM (2×) and 86 µM and 183 µM (2×) and 184 µM (2×)
Kd [5, 9]: 312 µM (2×) and 158 µM
Kd [5, 10]: 261 ± 89 µM

O=C1Nc2cc(Cl)ccc2C1(O)c1cc(Cl)ccc1O (stereo not shown) [Compound 9]
I/Io (ratio of peak intensities of Leu60 Cδ1H3 in 1H-13C-HMQC spectra in presence and absence of ligand) [2]: 0.3 (N = 1)
Ki [4, 6]: 172 ± 35 µM
Ki [4, 7]: 197 µM and 147 µM

Cc1ccc(O)c(C2(c3cn[nH]c3)C(=O)Nc3cc(C(F)(F)F)ccc32)c1 (stereo not shown) [Compound 12]
IC50 [3]: > 200 µM
IC50 [1]: > 200 µM
I/Io (ratio of peak intensities of Leu60 Cδ1H3 in 1H-13C-HMQC spectra in presence and absence of ligand) [2]: <0.1 (N = 1)
Ki ([4]; protein 10 μM, reporter (S)-1 40 μM, read-out: 19F-reporter Ki): 90 ± 41 µM
Ki ([4]; source data, read-out: 19F-reporter, individual experiments (Exp1-58)): 119 µM and 61 µM
Kd [5, 8]: 138 µM
Kd [5, 9]: 145 µM and 130 µM
Kd [5, 10]: 138 ± 11 µM

Cc1ccc(O)c(C2(O)C(=O)Nc3cc(C(F)(F)F)ccc32)c1 (stereo not shown) [Compound 13]
I/Io (ratio of peak intensities of Leu60 Cδ1H3 in 1H-13C-HMQC spectra in presence and absence of ligand) [2]: 0.4 (N = 1)
Kd [5, 10]: > 1000 µM

O=C1Nc2cc(C(F)(F)F)ccc2[C@]1(O)c1cc(Cl)ccc1O [Compound (S)-1]
IC50 [1]: > 200 µM
